Measured values reported in PubChem BioAssay AID1963840 (Molecular Pharmacology Branch, DTP, NCI, 2024).

Test system: 695427-040-R-J1-PDC complex spheroid viability
Assay: Anticancer human tumor 695427-040-R-J1-PDC patient-derived colon adenocarcinoma cell line growth inhibition [POLQ]
Details: for IC50: curve of first compound; for viability, T/C: stronger effect = lower value
Procedure: Multicellular complex tumor spheroid response to Polymerase (POL) inhibitors (novobiocin, ART-558, RP6685) in combination with a variety of drugs and investigational agents in selected tumor cell lines
The POL inhibitors (novobiocin, ART-558, and RP6685) were evaluated both individually and in combination with standard of care and investigational anticancer small molecules within a complex spheroid model of solid tumors. . Complex spheroids include a stromal component modeled by human endothelial cells (HUVEC) and fibroblasts modeled by human mesenchymal stem cells (MSCs). The concentration ranges selected for each drug and investigational agent were based upon clinically achievable concentrations if the clinical Cmax of the agent was known.
Compounds. The drugs and investigational agents: novobiocin (NSC847541), ART-558 (NSC835418), RP-6685 (NSC848927), peposertib (NSC802822), ceralasertib (NSC780249), elimusertib (NSC800525), camonsertib (NSC841442), AZD-1390 (NSC803789), olaparib (NSC753686), talazoparib (NSC767125), rucaparib (NSC756644), sotorasib (NSC818433), MRTX-1133 (NSC836407), SN-38 (NSC673596), topotecan (NSC609699), epotoside (NSC141540), doxorubicin (NSC123127), gemcitabine (NSC613327), 5-fluorouracil (NSC19893), paclitaxel (NSC125973), vemurafenib (NSC761431), MSA-2 (NSC828583), SN-011 (NSC837082), adavosertib (NSC754352), prexasertib (NSC758257), carboplatin (NSC241240) and oxaliplatin (NSC266046), were obtained from the National Cancer Institute (NCI) Developmental Therapeutics Program Chemical Repository (21). The FDA-approved anticancer drug set is available from the Developmental Therapeutics Program at https://dtp.cancer.gov/organization/dscb/obtaining/. […] The stock solutions were prepared in dimethyl sulfoxide (DMSO, Sigma-Aldrich, St. Louis, MO, cat. D2650), except for the platinum compounds which were prepared in saline (Quality Biological, Gaithersburg, MD, cat. 114-055-101), at 800-fold the tested concentration and stored at -70 degrees C prior to their use. All drugs and investigational agents were tested over a range starting from a high concentration at or near the clinical Cmax and decreasing in half-log increments. If the clinical Cmax for an agent had not been determined, the highest concentration tested was 10 microM, except for SN-38, which was tested at a high concentration of 1 microM.
Cell Culture. All cells were maintained in an incubator at 37 degrees C and 5% CO2 with 95% humidity. The PDC lines were cultured according to standard operating procedures established by the NCI PDMR (https://pdmr.cancer.gov). Table 3 of the manuscript, lists the cell lines along with the number of the three cell types plated to form the mct-spheroids and media for tumor cell growth. After thawing, all PDC lines, except 997537-175-T-J1-PDC and 415267-285-R-J2-PDC, were cultured in Matrigel-coated flasks prepared with a working solution of 1X Ham's F-12 nutrient mix, without supplementation (Thermo Fisher Scientific, cat. 11765054), 100 U/mL penicillin-streptomycin (Thermo Fisher Scientific, cat. 15140122), and 2.5% Matrigel (Corning Inc., Corning, NY, cat. 354248) for the first three passages. The two PDC lines 997537-175-T-J1-PDC and 415267-285-R-J2-PDC were cultured on uncoated flasks. The 857933-349-R-J2-PDC line was cultured in 6C/Colon 1B media containing advanced DMEM/F-12 (Thermo Fisher Scientific, cat. 12634028), 10 mM HEPES (Thermo Fisher Scientific, cat. 15630080), 1X GlutaMAX supplement (Thermo Fisher Scientific, cat. 35050061), 0.1 mg/mL primocin (InvivoGen, San Diego, CA, cat. ant-pm-2), 10% defined fetal bovine serum, heat inactivated (HyClone Laboratories Inc., Logan, UT, cat. SH30070.03HI), 50% L-WRN conditioned media (ATCC, cat. CRL-3276), 1.25 mM N-Acetyl-L-cysteine (Sigma-Aldrich, cat. A9165), 10 mM nicotinamide (Sigma-Aldrich, cat. N0636), 1X B-27 supplement (Thermo Fisher Scientific, cat. 17504044), 1X N-2 supplement (Thermo Fisher Scientific, cat. […]

[1] = second compound 0.0316 µM, first compound 0.0316 µM
[2] = second compound 0.0316 µM, first compound 0.1 µM
[3] = second compound 0.0316 µM, first compound 0.316 µM
[4] = second compound 0.0316 µM, first compound 1 µM
[5] = second compound 0.0316 µM, first compound 3.16 µM
[6] = second compound 0.0316 µM, first compound 10 µM
[7] = second compound 0.1 µM, first compound 0.0316 µM
[8] = second compound 0.1 µM, first compound 0.1 µM
[9] = second compound 0.1 µM, first compound 0.316 µM
[10] = second compound 0.1 µM, first compound 1 µM
[11] = second compound 0.1 µM, first compound 3.16 µM
[12] = second compound 0.1 µM, first compound 10 µM
[13] = second compound 0.316 µM, first compound 0.0316 µM
[14] = second compound 0.316 µM, first compound 0.1 µM
[15] = second compound 0.316 µM, first compound 0.316 µM
[16] = second compound 0.316 µM, first compound 1 µM
[17] = second compound 0.316 µM, first compound 3.16 µM
[18] = second compound 0.316 µM, first compound 10 µM
[19] = second compound 1 µM, first compound 0.0316 µM
[20] = second compound 1 µM, first compound 0.1 µM
[21] = second compound 1 µM, first compound 0.316 µM
[22] = second compound 1 µM, first compound 1 µM
[23] = second compound 1 µM, first compound 3.16 µM
[24] = second compound 1 µM, first compound 10 µM
[25] = second compound 3.16 µM, first compound 0.0316 µM
[26] = second compound 3.16 µM, first compound 0.1 µM
[27] = second compound 3.16 µM, first compound 0.316 µM
[28] = second compound 3.16 µM, first compound 1 µM
[29] = second compound 3.16 µM, first compound 3.16 µM
[30] = second compound 3.16 µM, first compound 10 µM
[31] = second compound 10 µM, first compound 0.0316 µM
[32] = second compound 10 µM, first compound 0.1 µM
[33] = second compound 10 µM, first compound 0.316 µM
[34] = second compound 10 µM, first compound 1 µM
[35] = second compound 10 µM, first compound 3.16 µM
[36] = second compound 10 µM, first compound 10 µM
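Further: spheroids exposed to compounds for seven days.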
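Wherever viability, T/C is given: 100% = DMSO vehicle control viability.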

CCc1cc2c(N3CCc4c(cc(Cn5ccnc5)cc4-c4cn(C)nc4C(F)(F)F)C3=O)cc(C)nc2c(OC)n1 + Nc1ccc(C#CCN(C(=O)Cc2ncc(C(F)(F)F)cc2C(F)(F)F)c2ccc(F)cc2)nn1
IC50 (second compound 0.0316 µM): > 10 µM | IC50 (second compound 0.1 µM): > 10 µM | IC50 (second compound 0.316 µM): > 10 µM | IC50 (second compound 1 µM): > 10 µM | IC50 (second compound 3.16 µM): > 10 µM | IC50 (second compound 10 µM): > 10 µM | viability, T/C [1]: 102% | viability, T/C [2]: 106% | viability, T/C [3]: 107% | viability, T/C [4]: 108% | viability, T/C [5]: 113% | viability, T/C [6]: 108% | viability, T/C [7]: 120% | viability, T/C [8]: 103% | viability, T/C [9]: 103% | viability, T/C [10]: 101% | viability, T/C [11]: 112% | viability, T/C [12]: 102% | viability, T/C [13]: 102% | viability, T/C [14]: 98.9% | viability, T/C [15]: 99.9% | viability, T/C [16]: 101% | viability, T/C [17]: 113% | viability, T/C [18]: 98.8% | viability, T/C [19]: 112% | viability, T/C [20]: 95.8% | viability, T/C [21]: 99.3% | viability, T/C [22]: 105% | viability, T/C [23]: 98.5% | viability, T/C [24]: 98.3% | viability, T/C [25]: 109% | viability, T/C [26]: 116% | viability, T/C [27]: 88.3% | viability, T/C [28]: 95.3% | viability, T/C [29]: 103% | viability, T/C [30]: 108% | viability, T/C [31]: 107% | viability, T/C [32]: 94.6% | viability, T/C [33]: 95.6% | viability, T/C [34]: 91.8% | viability, T/C [35]: 98.7% | viability, T/C [36]: 97.9%

CNCc1ccc(-c2[nH]c3cc(F)cc4c3c2CCNC4=O)cc1 + Nc1ccc(C#CCN(C(=O)Cc2ncc(C(F)(F)F)cc2C(F)(F)F)c2ccc(F)cc2)nn1
IC50 (second compound 0.0316 µM): > 10 µM | IC50 (second compound 0.1 µM): > 10 µM | IC50 (second compound 0.316 µM): > 10 µM | IC50 (second compound 1 µM): > 10 µM | IC50 (second compound 3.16 µM): > 10 µM | IC50 (second compound 10 µM): > 10 µM | viability, T/C [1]: 101% | viability, T/C [2]: 101% | viability, T/C [3]: 106% | viability, T/C [4]: 108% | viability, T/C [5]: 110% | viability, T/C [6]: 107% | viability, T/C [7]: 114% | viability, T/C [8]: 110% | viability, T/C [9]: 104% | viability, T/C [10]: 104% | viability, T/C [11]: 118% | viability, T/C [12]: 109% | viability, T/C [13]: 119% | viability, T/C [14]: 102% | viability, T/C [15]: 96.1% | viability, T/C [16]: 104% | viability, T/C [17]: 115% | viability, T/C [18]: 104% | viability, T/C [19]: 117% | viability, T/C [20]: 94% | viability, T/C [21]: 98.1% | viability, T/C [22]: 103% | viability, T/C [23]: 112% | viability, T/C [24]: 107% | viability, T/C [25]: 103% | viability, T/C [26]: 111% | viability, T/C [27]: 97.2% | viability, T/C [28]: 112% | viability, T/C [29]: 113% | viability, T/C [30]: 118% | viability, T/C [31]: 105% | viability, T/C [32]: 98.6% | viability, T/C [33]: 92.3% | viability, T/C [34]: 105% | viability, T/C [35]: 105% | viability, T/C [36]: 102%

COc1ccc([C@@H](O)c2cc(-c3ncnc4cc(N5CCOCC5)ccc34)c(F)cc2Cl)nn1 + Nc1ccc(C#CCN(C(=O)Cc2ncc(C(F)(F)F)cc2C(F)(F)F)c2ccc(F)cc2)nn1
IC50 (second compound 0.0316 µM): > 10 µM | IC50 (second compound 0.1 µM): > 10 µM | IC50 (second compound 0.316 µM): > 10 µM | IC50 (second compound 1 µM): > 10 µM | IC50 (second compound 3.16 µM): > 10 µM | IC50 (second compound 10 µM): > 10 µM | viability, T/C [1]: 101% | viability, T/C [2]: 91.6% | viability, T/C [3]: 99.2% | viability, T/C [4]: 89.7% | viability, T/C [5]: 84.3% | viability, T/C [6]: 60.7% | viability, T/C [7]: 105% | viability, T/C [8]: 108% | viability, T/C [9]: 98.8% | viability, T/C [10]: 89.3% | viability, T/C [11]: 86.5% | viability, T/C [12]: 54% | viability, T/C [13]: 108% | viability, T/C [14]: 106% | viability, T/C [15]: 99.7% | viability, T/C [16]: 89.6% | viability, T/C [17]: 89.9% | viability, T/C [18]: 63.9% | viability, T/C [19]: 108% | viability, T/C [20]: 97.5% | viability, T/C [21]: 91.1% | viability, T/C [22]: 91% | viability, T/C [23]: 86.2% | viability, T/C [24]: 52.2% | viability, T/C [25]: 101% | viability, T/C [26]: 97.4% | viability, T/C [27]: 99.2% | viability, T/C [28]: 90.9% | viability, T/C [29]: 78.3% | viability, T/C [30]: 56.2% | viability, T/C [31]: 101% | viability, T/C [32]: 92.5% | viability, T/C [33]: 90.1% | viability, T/C [34]: 89.8% | viability, T/C [35]: 82.1% | viability, T/C [36]: 55.1%
